Measurements published in patent US9676771B2, “Compounds for inhibiting drug-resistant strains of HIV-1 integrase” (priority 2013, dated 2017).
Where two headings read alike, the source gives them in different places.

Key:
[1] = system: HIV-1 constructs containing mutant IN R263K; assay: Single-round HIV-1 infectivity assay, IN mutant R263K; format: cell-based; settings: Human immunodeficiency virus 1
Experimental: (§1) Single-Round HIV-1 Infectivity Assay.
(§2) Human embryonyl kidney cell culture cell line 293 was acquired from the American type Culture Collection (ATCC).
(§3) […]. […] The virus-containing supernatants were then harvested, clarified by low-speed centrifugation, filtrated, and diluted for preparation in infection assays. […] After compound incorporation and activation in the cell, 100 μL of virus-stock diluted to achieve a maximum luciferase signal between 0.2 and 1.5 RLUs was added to each well and further incubated at 37° C. for 48 hrs. […] Activity was normalized to infectivity in the absence of target compounds. KaleidaGraph (Synergy Software, Reading, Pa.) was used to perform regression analysis on the data. EC50 values were determined from the fit model.
(§4) pNLNgoMIVR^−ΔEnv.LUC has been described previously (Zhao et al. 2008). The integrase codon reading frame was removed from pNLNgoMIVR^−ΔEnv LUC (between KpnI and SalI sites) and placed between the KpnI and SalI sites of pBluescript II KS+. Using that construct as the wild-type template, we prepared the following HIV-1 Integrase-resistant mutants via the QuikChange II XL (Stratagene, La Jolla, Calif.) site-directed mutagenesis protocol: H51Y, T66I, E92Q, G118R, Y143R, Q148H, Q148K, N155H, R263K, G140S+Q148H, G140A+Q148K, E138K+Q148K, and H51Y+R263K. The following sense with cognate antisense (not shown) oligonucleotides (Integrated DNA Technologies, Coralville, Iowa) were used in the mutagenesis: H51Y, 5′-[…]-3; T66I, 5′-[…]-3′; E92Q, 5′-[…]-3′; G118R, 5′-[…]-3′; E138K, 5′-[…]-3; G140A, 5′-[…]-3; G140S, 5′-[…]-3′; Y143R, 5′-[…]-3′; Q148H, 5′-[…]-3′; Q148K, 5′-[…]-3; N155H, 5′-[…]-3′; R263K 5′-[…]-3′. The double mutation G140S+Q148H was constructed by using the previously generated Q148H mutant and the appropriate oligonucleotide for the 2nd mutation, G140S. The double mutation G140A+Q148K was made by using the Q148K mutant and the appropriate oligonucleotide for the 2nd mutation, G140A. The double mutation E138K+Q148K was made by using the Q148K mutant and the appropriate oligonucleotide for the 2nd mutation, E138K. The double mutation H51Y+R263K was constructed by using the previously generated H51Y mutant and the appropriate oligonucleotides for the 2nd mutation, R263K. The DNA sequence of each construct was verified independently by DNA sequence determination. The mutant integrase coding sequences from pBluescript II KS+ were then subcloned into pNLNgoMIVR^−ΔEnv LUC (between the KpnI and SalI sites) to produce the full-length mutant HIV-1 Integrase constructs. These DNA sequences were additionally checked independently by DNA sequence determination.

in vitro = format: cell-based, human; settings: human, 50% reduction in the level of ATP in HOS cells
Method in brief: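 Cells exposed to compounds over a concentration range for 48 hrs at 37° C. Viability read as cellular ATP by luciferase (ATPlite) luminescence after lysis, normalised to untreated cells; CC50 derived by regression fit.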

[2] = system: HIV-1 constructs containing mutant IN G118R; assay: microbe, parasite or virus in culture; format: cell-based; settings: for EC50: Human immunodeficiency virus 1
Experimental: as §1, §2, §3, §4

HIV-1 integrase = HIV-1 integrase (Human immunodeficiency virus type 1 group M subtype B, UniProt P12497); assay: biochemical; format: biochemical
Method in brief: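 Compounds or DMSO added to 20 nM DNA and 400 nM integrase in 50 mM MOPS pH 7.2, 7.5 mM MgCl2, 14 mM 2-mercaptoethanol; 2 h at 37° C, quenched with formamide/SDS loading buffer. Products resolved on gels, imaged and quantified by densitometry.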

[3] = system: HIV-1 constructs containing wild-type IN; assay: microbe, parasite or virus in culture; format: cell-based
[4] = Table 8, read-out: EC50 (nM, IN mutants) R263K
[5] = Table 8, read-out: EC50 (nM, IN mutants) G118R
[6] = Table 10, strand transfer, read-out: IC50 (nM, ST)
[7] = Human immunodeficiency virus 1, Table 8, WT IN, read-out: EC50 (nM, WT)
[8] = Table 6, read-out: EC50 (nM, IN Mutants) R263K
[9] = Table 6, read-out: EC50 (nM, IN Mutants) G118R
[10] = Human immunodeficiency virus 1, Table 3, WT IN, read-out: EC50 (nM, WT)
[11] = Table 4, 3′-processing, read-out: IC50 (3^+-Processing)
[12] = Table 4, strand transfer, read-out: IC50 (Strand Transfer)
[13] = Human immunodeficiency virus 1, read-out: EC50 (nM), Table 9, WT, normal 5% serum
[14] = Table 7, 3′-processing, read-out: IC50 (μM) 3′-P
[15] = Table 7, strand transfer, read-out: IC50 (μM) ST

SMILES | EC50 [1, 4] | CC50 (in vitro; Table 8) | EC50 [2, 5] | EC50 [3, 7] | EC50 [3, 13] | IC50 (HIV-1 integrase; [14]) | IC50 (HIV-1 integrase; [15]) | other results
C[C@@H]1CCO[C@H]2Cn3cc(C(=O)NCc4ccc(F)cc4F)c(=O)c(O)c3C(=O)N12 [DTG, dolutegravir, reference compound] | 11.3 nM | > 250 µM | 13 ± 5 nM | 1.6 nM |  |  |  | IC50 (HIV-1 integrase; [6]): 12.4 ± 2.6 nM
O=C(NCc1ccc(F)cc1F)c1c(O)c2cccnc2n(O)c1=O [XZ351, N-(2,4-difluorobenzyl)-1,4-dihydroxy-2-oxo-1,2-dihydro-1,8-naphthyridine-3-carboxamide] |  |  |  |  |  |  |  | EC50 [1, 8]: 35.9 ± 7.6 nM; CC50 (in vitro; Table 2): 137 µM; CC50 (in vitro; Table 3): 137 ± 20.1 µM; CC50 (in vitro; Table 6): 137 ± 20.1 µM; Integrase Mutants G118R, fold-change in EC50 relative to WT [2]: 6 x; EC50 [2, 9]: 107 ± 40 nM; IC50 (HIV-1 integrase; Table 1, 3′-processing, read-out: IC50 Values 3′-Processing): 1200 ± 200 nM; IC50 (HIV-1 integrase; Table 1, strand transfer, read-out: IC50 Values Strand transfer): 55 ± 8 nM; SI [3]: 22,767; Si (selectivity index) [3]: 22,032; EC50 ([3]; Human immunodeficiency virus 1, Table 2, cells infected with lentiviral vector harboring WT IN, read-out: EC50): 6 nM; EC50 [3, 10]: 6.2 ± 2.9 nM
COC(=O)CNc1c(C(=O)NCc2ccc(F)cc2F)c(=O)n(O)c2ncccc12 [XZ379, Methyl 2-((3-((2,4-difluorobenzyl)carbamoyl)-1-hydroxy-2-oxo-1,2-dihydro-1,8-naphthyridin-4-yl)amino)acetate] |  |  |  |  | 3.8 ± 1.2 nM |  |  | EC50 [1, 8]: 25.9 ± 8.2 nM; CC50 (in vitro; Table 3): > 250 µM; CC50 (in vitro; Table 6): > 250 µM; EC50 [2, 9]: 41.3 ± 18 nM; IC50 (HIV-1 integrase; [11]): 710 ± 100 nM; IC50 (HIV-1 integrase; [12]): 21 ± 11 nM; EC50 [3, 10]: 3.8 ± 1.2 nM; Si (selectivity index) ([3]; Table 3, ratio of CC50 to EC50): >25,000
CC(=O)OCCNc1c(C(=O)NCc2ccc(F)cc2F)c(=O)n(O)c2ncccc12 [XZ402, 2-((3-((2,4-difluorobenzyl)carbamoyl)-1-hydroxy-2-oxo-1,2-dihydro-1,8-naphthyridin-4-yl)amino)ethyl acetate] |  |  |  |  | 4.5 ± 1.5 nM |  |  | EC50 [1, 8]: 16 ± 5.1 nM; CC50 (in vitro; Table 3): > 250 µM; CC50 (in vitro; Table 6): > 250 µM; EC50 [2, 9]: 43.5 ± 11.2 nM; IC50 (HIV-1 integrase; [11]): 5300 ± 500 nM; IC50 (HIV-1 integrase; [12]): 27 ± 6 nM; EC50 [3, 10]: 4.5 ± 1.5 nM; Si (selectivity index) ([3]; Table 3, ratio of CC50 to EC50): >25,000
Nc1c(C(=O)NCc2ccc(F)cc2F)c(=O)n(O)c2ncc(CCCCCO)cc12 [XZ419, 4-Amino-N-(2,4-difluorobenzyl)-1-hydroxy-6-(5-hydroxypentyl)-2-oxo-1,2-dihydro-1,8-naphthyridine-3-carboxamide] | 2.6 nM | > 250 µM | 5.3 nM | 1.3 nM | 1.3 ± 0.2 nM | 8200 ± 1200 nM | 2.7 ± 0.4 nM | 
Nc1c(C(=O)NCc2ccc(F)cc2F)c(=O)n(O)c2ncc(CCCO)cc12 [XZ423, 4-Amino-N-(2,4-difluorobenzyl)-1-hydroxy-6-(3-hydroxypropyl)-2-oxo-1,2-dihydro-1,8-naphthyridine-3-carboxamide] | 2.5 nM | > 250 µM | 10 nM | 3.1 nM |  | 4300 ± 600 nM | 11.3 ± 2.7 nM | 
CC(=O)OCCCc1cnc2c(c1)c(N)c(C(=O)NCc1ccc(F)cc1F)c(=O)n2O [XZ424, 3-(5-Amino-6-((2,4-difluorobenzyl)carbamoyl)-8-hydroxy-7-oxo-7,8-dihydro-1,8-naphthyridin-3-yl)propyl acetate] | 1.75 nM | > 250 µM | 5.9 nM | 1.4 nM |  | 14300 ± 2100 nM | 10.2 ± 1.6 nM | 
Nc1c(C(=O)NCc2ccc(F)cc2F)c(=O)n(O)c2ncc(CCCCCCO)cc12 [XZ426, 4-Amino-N-(2,4-difluorobenzyl)-1-hydroxy-6-(6-hydroxyhexyl)-2-oxo-1,2-dihydro-1,8-naphthyridine-3-carboxamide] | 8.4 nM | > 250 µM | 6.4 nM | 2.33 nM | 2.3 ± 0.6 nM | 19000 ± 1000 nM | 0.59 ± 0.11 nM | 
Nc1c(C(=O)NCc2ccc(F)cc2F)c(=O)n(O)c2ncc(CCCCCCCCO)cc12 [XZ433, 4-Amino-N-(2,4-difluorobenzyl)-1-hydroxy-6-(8-hydroxyoctyl)-2-oxo-1,2-dihydro-1,8-naphthyridine-3-carboxamide] | 3.8 nM | > 250 µM | 11.1 nM | 3.7 nM |  | 32000 ± 6000 nM | 5.4 ± 0.8 nM | 
COC(=O)CCc1cnc2c(c1)c(N)c(C(=O)NCc1ccc(F)cc1F)c(=O)n2O [XZ434, Methyl 3-(5-amino-6-((2,4-difluorobenzyl)carbamoyl)-8-hydroxy-7-oxo-7,8-dihydro-1,8-naphthyridin-3-yl)propanoate] | 0.5 nM | > 250 µM | 4.8 nM | 0.67 nM | 0.7 ± 0.2 nM | 2900 ± 600 nM | 1.8 ± 0.2 nM | 
O=C(NCc1ccc(F)cc1F)c1c(NCCO)c2cc(CCCCCO)cnc2n(O)c1=O [XZ437, N-(2,4-Difluorobenzyl)-1-hydroxy-4-((2-hydroxyethyl)amino)-6-(5-hydroxypentyl)-2-oxo-1,2-dihydro-1,8-naphthyridine-3-carboxamide] | 18.1 nM | > 250 µM | 23.9 nM | 13 nM |  | 4000 ± 500 nM | 2.5 ± 0.2 nM | 
COC(=O)CCc1cnc2c(c1)c(NCCO)c(C(=O)NCc1ccc(F)cc1F)c(=O)n2O [XZ438, Methyl 3-(6-((2,4-difluorobenzyl)carbamoyl)-8-hydroxy-5-((2-hydroxyethyl)amino)-7-oxo-7,8-dihydro-1,8-naphthyridin-3-yl)propanoate] | 6.5 nM | > 250 µM | 4.8 nM | 4.1 ± 1 nM |  | 3200 ± 300 nM | 3.1 ± 0.3 nM | 
O=C(NCc1ccc(F)cc1F)c1c(O)c2c(CO)ccnc2n(O)c1=O [XZ440, N-(2,4-Difluorobenzyl)-1,4-dihydroxy-5-(hydroxymethyl)-2-oxo-1,2-dihydro-1,8-naphthyridine-3-carboxamide] | 4 ± 1.4 nM | > 250 µM | 23 nM | 7.3 nM |  |  |  | IC50 (HIV-1 integrase; [6]): 14.5 ± 0.8 nM
